Assay results reported in patent EP0051773A1, “Penicillins, their salts, process for their preparation and pharmaceutical compositions containing them” (Dr. Karl Thomae GmbH, priority 1980, dated 1982).
Converted amounts (≈) assume the structure as drawn.

How the values were obtained:
[1] = tested on: Proteus mirabilis Hamburgensis; assay: serial dilution test in microtiter system (bacteriostasis, MIC); format: cell-based; settings: liquid medium, 18 to 20 h at 37°C, read-out: MHK-Werte Prot. mir. Hbg.
Procedure: (§1) Für die Untersuchungen wurde die Methode des Reihenverdünnungstestes im Mikrotitersystem angewandt. Die Prüfung der Substanzen auf Bakteriostase erfolgte in flüssigem Medium. Es wurde die Bakteriostasewirkung bei folgenden Konzentrationen untersucht.
(§2) Es wurde ein Nährboden folgender Zusammensetzung benutzt: 10 g Pepton, 8 g Fleischextrakt-Oxoid, 3 g Natriumschlorid, 2 g sek. Natriumphosphat werden mit dest. Wasser auf 1000 ml aufgefüllt (pH 7,2-7,4). Lediglich bei der Testung gegen Streptokokken wurde 1% Glucose hinzugefügt. Das Alter der Primärkulturen betrug etwa 20 Stunden. Die Einstellung der Keimsuspension erfolgte am Photometer (nach "Eppendorf") (Reagenzglas-Durchmesser 14 mm, Filter 546 nm) anhand der Trübung einer Bariumsulfat-Vergleichssuspension, die durch eine Bariumsulfat-Aufschwemmung erzeugt wurde, welche durch die Zugabe von 3,0 ml 1%ige Bariumchloridlösung in 97 ml 1%ige Schwefelsäure entstand. Nach der Einstellung wurden Streptococcus Aronson im Verhältnis 1:15 und die übrigen Testkeime im Verhältnis 1:1500 mit einer Kochsalzlösung weiter verdünnt.
(§3) 16 mg der jeweiligen Substanz wurden in 10 ml-Meßkolben eingewogen und mit dem Lösungsmittel bis zur Marke aufgefüllt. Die weitere Verdünnungsreihe wurde mit destilliertem Wasser oder dem jeweiligen Lösungsmittel hergestellt.
(§4) Die Vertiefungen der Mikrotiterplatten wurden mit 0,2 ml Nährmedium, 0,01 ml der entsprechenden Substanzverdünnung und mit einem Tropfen Keimsuspension (0,01 ml) beschickt und 18 bis 20 Stunden bei 37°C bebrütet. Eine Lösungsmittelkontrolle wurde stets mitgeführt.
(§5) Die Ablesung wurde makroskopisch vorgenommen, wobei die jeweilige Grenkonzentration (= niedrigste noch bakteriostatisch wirksame Konzentration) ermittelt wurde.
(§6) Als Testorganismen wurden benützt: - Staphylococcus aureus SG 511, Escherichia coli ATCC 11 775, Pseudomonas aeruginosa Hamburgensis und Walter, Serratia marcescens ATCC 13 880, Klebsiella pneumoniae ATCC 10 031 und BC 6, Proteus mirabilis Hamburgensis, Proteus rettgeri BC 7 und Enterobacter cloacae ATCC 13 047.
(§7) In der folgenden Tabelle 2 sind die ermittelten minimalen Hemmkonzentrationen (MIC) für typische Vertreter der erfindungsgemäßen Verbindungen aufgeführt, wobei sich die Ziffern auf die Penicilline der Tabelle 1 Seite 18 beziehen.

[2] = tested on: Serratia marcescens ATCC 13 880; assay: as above; format: cell-based; settings: ATCC13, liquid medium, 18 to 20 h at 37°C, read-out: MHK-Werte Serr. marcesc. ATCC 13 880
Procedure: as §1, §2, §3, §4, §5, §6, §7

Proteus rettgeri BC 7 = assay: as above; format: cell-based; settings: Providencia rettgeri, BC7; liquid medium, 18 to 20 h at 37°C; read-out: MHK-Werte Prot. rettg. BC 7
Procedure: as §1, §2, §3, §4, §5, §6, §7

[3] = tested on: Pseudomonas aeruginosa Hamburgensis; assay: as above; format: cell-based; settings: liquid medium, 18 to 20 h at 37°C, read-out: MHK-Werte Pseud. aerug. Hbg.
Procedure: as §1, §2, §3, §4, §5, §6, §7

[4] = tested on: Klebsiella pneumoniae BC 6; assay: as above; format: cell-based; settings: BC6, liquid medium, 18 to 20 h at 37°C, read-out: MHK-Werte Kl. pneum. BC 6
Procedure: as §1, §2, §3, §4, §5, §6, §7

[5] = tested on: Klebsiella pneumoniae ATCC 10 031; assay: as above; format: cell-based; settings: ATCC10, liquid medium, 18 to 20 h at 37°C, read-out: MHK-Werte Kl. pneum. ATCC 10 031
Procedure: as §1, §2, §3, §4, §5, §6, §7

[6] = tested on: Pseudomonas aeruginosa Walter; assay: as above; format: cell-based; settings: liquid medium, 18 to 20 h at 37°C, read-out: MHK-Werte Pseud. aerug. Walter
Procedure: as §1, §2, §3, §4, §5, §6, §7

[7] = tested on: Escherichia coli ATCC 11 775; assay: as above; format: cell-based; settings: ATCC11, liquid medium, 18 to 20 h at 37°C, read-out: MHK-Werte E.coli ATCC 11 755
Procedure: as §1, §2, §3, §4, §5, §6, §7

[8] = tested on: Enterobacter cloacae ATCC 13 047; assay: as above; format: cell-based; settings: ATCC13, liquid medium, 18 to 20 h at 37°C, read-out: MHK-Werte Eb. cloacae 13 047
Procedure: as §1, §2, §3, §4, §5, §6, §7

[9] = tested on: Staphylococcus aureus SG 511; assay: as above; format: cell-based; settings: SG511, liquid medium, 18 to 20 h at 37°C, read-out: MHK-Werte Staph. aureus SG 511
Procedure: as §1, §2, §3, §4, §5, §6, §7

E.coli ATCC 11 775 = assay: experimental intraperitoneal infection in mice, ED50 (survival); format: in vivo, Mäuse; settings: Escherichia coli, ATCC 11 / ATCC 1175, sc, 168 h; female NMRI mice, i.p. infection, s.c. application, treated once, 7 days observation
Procedure: (§8) Eine Reihe der erfindungsgemäßen Verbindungen wurde in vivo bei experimentellen Infektionen an Mäusen untersucht. Man verwendete als pathogene Bakterien E.coli ATCC 11 775 und Pseudomonas aeruginosa Walter. Es wurde eine intraperitoneale Infektion mit 0,2 ml einer 5%igen Mucinsuspension der Bakterien gesetzt. Dies entspricht etwa 2x10^6 Keime E.coli bzw. 8x10^5 Keime Pseudomonas/Maus. Weibliche Mäuse vom Stamm NMRI wurden in Gruppen von jeweils 10 Tieren aufgeteilt, zwei Gruppen blieben unbehandelt, die restlichen Gruppen wurden mit verschiedenen Dosen der jeweiligen erfindungsgemäßen Penicilline zur Bestimmung der ED50 (Dosis, bei der 50 % der Tiere überleben) behandelt. Bei der E.coli-Infektion wurde einmal therapiert. Bei der Pseudomonas-Infektion wurde dreimal behandelt.
(§9) Der Beobachtungszeitraum betrug in beiden Fällen 7 Tage. Die Ergebnisse dieser Teste mit repräsentativen Vertretern der erfindungsgemäßen Penicilline sind in der Tabelle 3 dargestellt.

[10] = tested on: Pseudomonas aeruginosa Walter; assay: as above; format: in vivo, Mäuse; settings: sc, 168 h, female NMRI mice, i.p. infection, s.c. application, treated three times, 7 days observation, read-out: ED50 Pseud. aerug. Walter
Procedure: as §8, §9

| Structure (SMILES) | MIC [1] [mg/L] | MIC [2] [mg/L] | MIC (Proteus rettgeri BC 7) [mg/L] | MIC [3] [mg/L] | MIC [4] [mg/L] | MIC [5] [mg/L] | MIC [6] [mg/L] | MIC [7] [mg/L] | MIC [8] [mg/L] | MIC [9] [mg/L] | ED50 (E.coli ATCC 11 775) [mg/kg] | ED50 [10] [mg/kg] |
| --- | --- | --- | --- | --- | --- | --- | --- | --- | --- | --- | --- | --- |
| CNS(=O)(=O)c1ccc(Nc2ncc(NC(=O)N[C@@H](C(=O)N[C@@H]3C(=O)N4[C@@H]3SC(C)(C)[C@@H]4C(=O)O)c3ccc(O)cc3)c(O)n2)cc1 [Verbindung 7, D-α-[3-(4-Hydroxy-2-p-methylaminosulfonylanilino-5-pyrimidinyl)-ureido]-p-hydroxy-benzylpenicillin-Natrium] | 0.06 (≈ 0.0874 µM) | 0.12 (≈ 0.175 µM) | 0.5 (≈ 0.728 µM) | 1 (≈ 1.46 µM) | 1 (≈ 1.46 µM) | 1 (≈ 1.46 µM) | 1 (≈ 1.46 µM) | 0.12 (≈ 0.175 µM) | 0.5 (≈ 0.728 µM) | 0.25 (≈ 0.364 µM) | 3.4 | 6.6 |
| CC1(C)S[C@@H]2[C@H](NC(=O)[C@H](NC(=O)Nc3cnc(Nc4ccc(S(N)(=O)=O)cc4)nc3O)c3ccc(O)c(O)c3)C(=O)N2[C@H]1C(=O)O [Verbindung 3] | 0.5 (≈ 0.726 µM) | 4 (≈ 5.81 µM) | 1 (≈ 1.45 µM) | 4 (≈ 5.81 µM) | 8 (≈ 11.6 µM) | 8 (≈ 11.6 µM) | 4 (≈ 5.81 µM) | 1 (≈ 1.45 µM) | 4 (≈ 5.81 µM) | 0.5 (≈ 0.726 µM) | 3.7 | 10.4 |
| CC1(C)S[C@@H]2[C@H](NC(=O)[C@H](NC(=O)Nc3cnc(Nc4ccc(S(N)(=O)=O)cc4)nc3O)c3ccccc3)C(=O)N2[C@H]1C(=O)O [Verbindung 1, D-α-[3-(2-p-Aminosulfonylanilino-4-hydroxy-5-pyrimidinyl)-ureido]-benzylpenicillin-Natrium] | < 0.03 | 0.12 (≈ 0.183 µM) | 0.25 (≈ 0.381 µM) | 1 (≈ 1.52 µM) | 0.5 (≈ 0.761 µM) | 0.5 (≈ 0.761 µM) | 1 (≈ 1.52 µM) | 0.12 (≈ 0.183 µM) | 0.5 (≈ 0.761 µM) | 0.12 (≈ 0.183 µM) | 3.9 | 8.2 |
| CC1(C)S[C@@H]2[C@H](NC(=O)[C@H](NC(=O)N3CCNC3=O)c3ccccc3)C(=O)N2[C@H]1C(=O)O [A, 6-{D-α'-[(2-Oxo-imidazolidin-1-yl)-carbonylamino]-4-phenylacetamido}-penicillansäure-Natriumsalz, reference compound] | 0.5 (≈ 1.08 µM) | 2 (≈ 4.33 µM) | 2 (≈ 4.33 µM) | 8 (≈ 17.3 µM) | 32 (≈ 69.3 µM) | 32 (≈ 69.3 µM) | 8 (≈ 17.3 µM) | 16 (≈ 34.7 µM) | 32 (≈ 69.3 µM) | 0.5 (≈ 1.08 µM) | > 100 | 225 |
